Measured values from ChEMBL document CHEMBL1201862, “PubChem BioAssay data set” (2004).
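Tested at 5 concentrations; 48 h exposure; 96-well plates; endpoints linearly interpolated, else capped at highest concentration. GI50 marks 50% less growth.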 Activity calls are given as the source filed them. Cut-off read from the data, not from the text of the source: active = GI50 up to about 1.1 µM and inactive = higher.

Tests used:
Experiment in all cases: inhibition of tumour cell growth, NCI panel, 48 h
[1] = system: HCT-15
[2] = system: HL-60
[3] = system: HOP-18
[4] = system: HT-29
[5] = system: KM-20L2
[6] = system: KM12
[7] = system: M19-MEL
[8] = system: NCI-H226
[9] = system: NCI-H460
[10] = system: NCI-H522
[11] = system: OVCAR-8
[12] = system: RPMI-8226
[13] = system: SF-295
[14] = system: SK-MEL-5
[15] = system: SK-OV-3
[16] = system: SR
[17] = system: TK-10
[18] = system: A498

| SMILES | GI50 [1] [µM] | GI50 [2] | GI50 [3] | GI50 [4] | GI50 [5] | GI50 [6] | GI50 [7] | GI50 [8] | GI50 [9] | GI50 [10] | GI50 [11] | GI50 [12] | GI50 [13] | GI50 [14] | GI50 [15] | GI50 [16] | GI50 [17] | GI50 [18] |
| --- | --- | --- | --- | --- | --- | --- | --- | --- | --- | --- | --- | --- | --- | --- | --- | --- | --- | --- |
| O=c1c2ccccc2n2n1CC(O)C2 (stereo not given) | > 100 | > 100 µM (inactive) | > 100 µM (inactive) | > 100 µM (inactive) | > 100 µM (inactive) | > 100 µM (inactive) | > 100 µM (inactive) | > 100 µM (inactive) | > 100 µM (inactive) | > 100 µM (inactive) | > 100 µM (inactive) | > 100 µM (inactive) | > 100 µM (inactive) | > 100 µM (inactive) | > 100 µM (inactive) | > 100 µM (inactive) | > 100 µM (inactive) | – |
| CC(=O)N(C)c1ccc2ncccc2c1[N+](=O)[O-] | > 100 | > 100 µM (inactive) | > 100 µM (inactive) | > 100 µM (inactive) | > 100 µM (inactive) | > 100 µM (inactive) | > 100 µM (inactive) | > 100 µM (inactive) | > 100 µM (inactive) | – | > 100 µM (inactive) | > 100 µM (inactive) | > 100 µM (inactive) | > 100 µM (inactive) | – | > 100 µM (inactive) | > 100 µM (inactive) | > 100 µM (inactive) |
| COc1ccc(C#CCC(OC2OC(CO)C(O)C(O)C2O)C(O)c2ccc(OC)c(OC)c2)cc1OC (stereo not given) | > 100 | 61.1 µM (inactive) | > 100 µM (inactive) | > 100 µM (inactive) | > 100 µM (inactive) | > 100 µM (inactive) | – | > 100 µM (inactive) | > 100 µM (inactive) | > 100 µM (inactive) | > 100 µM (inactive) | > 100 µM (inactive) | > 100 µM (inactive) | > 100 µM (inactive) | > 100 µM (inactive) | > 100 µM (inactive) | – | > 100 µM (inactive) |
| NNC(=O)N/N=C1\C(=O)N(c2nccs2)C(=O)C(=O)C1c1nc2ccccc2s1 (stereo not given) | > 100 | – | 7.19 µM (inactive) | > 100 µM (inactive) | > 100 µM (inactive) | > 100 µM (inactive) | > 100 µM (inactive) | > 100 µM (inactive) | > 100 µM (inactive) | – | > 100 µM (inactive) | > 100 µM (inactive) | > 100 µM (inactive) | – | > 100 µM (inactive) | – | > 100 µM (inactive) | – |
| Cc1ccc(C)c(NC2=NC(=O)C(CC(=O)Nc3ccc(Cl)cc3Cl)S2)c1 (stereo not given) | > 100 | > 100 µM (inactive) | > 100 µM (inactive) | > 100 µM (inactive) | > 100 µM (inactive) | 52.6 µM (inactive) | 59.4 µM (inactive) | 28.1 µM (inactive) | > 100 µM (inactive) | 24 µM (inactive) | 66.1 µM (inactive) | > 100 µM (inactive) | > 100 µM (inactive) | > 100 µM (inactive) | > 100 µM (inactive) | – | > 100 µM (inactive) | 28.6 µM (inactive) |
| Cc1cc(N(CCC#N)CCC#N)ccc1/C=C1N=C(/C=C\c2ccccc2)N(c2ccc(C(=O)O)cc2)C\1=O | > 100 | > 100 µM (inactive) | > 100 µM (inactive) | > 100 µM (inactive) | > 100 µM (inactive) | > 100 µM (inactive) | > 100 µM (inactive) | > 100 µM (inactive) | > 100 µM (inactive) | > 100 µM (inactive) | > 100 µM (inactive) | > 100 µM (inactive) | > 100 µM (inactive) | > 100 µM (inactive) | > 100 µM (inactive) | > 100 µM (inactive) | > 100 µM (inactive) | > 100 µM (inactive) |
| CCOC(=O)c1nc2ccc(Cl)cc2c2c1Cc1ccccc1-2 | > 100 | – | > 100 µM (inactive) | – | > 100 µM (inactive) | > 100 µM (inactive) | > 100 µM (inactive) | > 100 µM (inactive) | – | 90.8 µM (inactive) | > 100 µM (inactive) | > 100 µM (inactive) | > 100 µM (inactive) | > 100 µM (inactive) | – | > 100 µM (inactive) | > 100 µM (inactive) | – |
| Cn1c(=O)nc2n(-c3cc(Cl)ccc3Cl)c3ccccc3nc-2c1=O | 3.8 | – | 12.4 µM (inactive) | 1.54 µM (inactive) | 2.93 µM (inactive) | 5.58 µM (inactive) | 1.35 µM (inactive) | 7.69 µM (inactive) | 2.53 µM (inactive) | 5.31 µM (inactive) | 3.34 µM (inactive) | 4.71 µM (inactive) | 7.62 µM (inactive) | 1.95 µM (inactive) | 28 µM (inactive) | – | 12.3 µM (inactive) | 18.6 µM (inactive) |
| C[C@@]12CCCc3coc(c31)C(=O)c1cc3c(cc12)C(=O)C=CC3=O [XESTOQUINONE] | 17.7 | 2.38 µM (inactive) | 15 µM (inactive) | 22.3 µM (inactive) | 18.4 µM (inactive) | 21.7 µM (inactive) | 13.8 µM (inactive) | – | 21.8 µM (inactive) | 7.06 µM (inactive) | 15.5 µM (inactive) | 5.98 µM (inactive) | – | 16.7 µM (inactive) | – | – | 21.2 µM (inactive) | 56.2 µM (inactive) |
